This passage reports cells killed results from patent US12054721B2, “Compositions and methods for 3-hydroxypropionic acid production” (CARGILL, INCORPORATED, priority 2010, dated 2024).

The test relates to yeast cells. Description: EMS mutagenesis of yeast cells (kill rate). The note with it: 3 μL EMS in 200 μL cell suspension (OD600 around 10), approximately one hour. In kind it is cell-based. How it is done:
For example, yeast cells from a fresh YP (yeast extract/peptone)+20 g/L glucose plate or liquid culture (OD600 1-4) are resuspended in sterile water to an OD600 of around 10. 200 μL aliquots of this cell suspension are pipetted into individual tubes and exposed to 3 μL […] (EMS) for approximately one hour, which kills around 65% of the cells. Higher EMS concentrations can also be used to increase the kill rate. After exposure, cells are neutralized with 5% sodium thiosulfate, washed in PBS buffer, recovered in rich media for approximately four hours, and cultured on selective media. Mock samples (no EMS) are also run to ensure that the conditions are selective. Alternatively, cells can be mutagenized using UV irradiation.

With `CCOS(C)(=O)=O` [ethane methyl sulfonate (EMS), ethane methyl sulfonate], the cells killed result is listed as “around 65%”.
